Source: patent publication US20260250325A1, “Antiviral Polypeptide Membrane Fusion Inhibitor, and Preparation Method and Application Thereof” (priority 2025, published 2026)
pEC50: −log10 of the molar value. Where a SMILES comes first, the peptide text is derived from it. The star is where a group is joined. Succinyl(4-O-cholesteryl) = CC(C)CCC[C@@H](C)[C@H]1CC[C@H]2[C@@H]3CC=C4C[C@@H](OC(=O)CCC(=O)*)CC[C@]4(C)[C@H]3CC[C@]12C

Key:
[1] = Cytotoxicity test in HEp-2 cells (CCK8 cell viability); type: cell-based; conditions: human; HEp-2 cells, CCK8, 1 day; read-out: CC50
Procedure, shortened: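 HEp-2 cells seeded at 30,000/well, cultured overnight at 37° C./5% CO2, then exposed to diluted compound for 1 day in 0.5% DMSO. Viability read by CCK8, normalised to untreated-cell and medium-only controls; CC50 from four-parameter variable-slope fit.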

hPIV3 C243 virus strain = type: cell-based, hPIV; conditions: LLC-MK2 cells, hPIV3 C243, plaque reduction; read-out: EC50 against hPIV3 virus
Experimental: Rhesus monkey kidney cells (LLC-MK2) were sourced from the ATCC, with a catalog number CCL-7.1. The cells were cultured in a DMEM culture solution in which 10% fetal bovine serum, 1% non-essential amino acids, 1% sodium pyruvate, 1% L-glutamine, 100 U/ml penicillin, and 100 μg/ml streptomycin were added.
An HPIV-3 plaque experiment culture medium consisted of a DMEM culture solution added with 2% fetal bovine serum, 1% non-essential amino acids, 1% sodium pyruvate, 1% L-glutamine, 100 U/ml penicillin, and 100 μg/ml streptomycin.
The hPIV Type 3 (hPIV3 C243) was sourced from the ATCC, with a catalog number VR-93.
This study used the plaque reduction experiment to detect the in-vitro activity of the test sample against the hPIV3 C243 virus strain, and Human Anti-HPIV3 Monoclonal Antibody, clone PIA174 was an experimental system control. The test sample and a system experimental antibody were tested at 8 concentrations in duplicated wells.
The LLC-MK2 cells were digested with trypsin and then diluted to a concentration of 400,000 cells per milliliter by using a cell culture solution containing 2% serum. The diluted cells were added to a 96-well cell test board, with 100 μL per well, corresponding to 40,000 cells per well. The cells were cultured overnight in a 37° C. incubator with 5% CO2.
On the next day, the sample diluted at a fold ratio and an equal volume of virus (approximately 200 PFU per well) were well mixed and incubated at 37° C. in 5% CO2 for 1 hour. Then, the culture solution in the 96-well cell test board was discarded, the sample virus mixed solution (100 μL) was added to the 96-well cell culture plate, and incubated at 37° C. in 5% CO2 for 2 hours. After 2 h, the sample virus mixed solution was discarded, 200 μL of an experiment culture medium containing the test sample with a corresponding concentration was added, and the culture solution contained 0.8% CMC. A final concentration of DMSO in the culture solution was 0.5%. A control antibody was directly added to the experiment culture solution containing 0.8% CMC. A cell control (cells, without compound treatment or viral infection) and a viral control (cell infection virus, without compound treatment) were set. The cells were cultured for 1 day in the 37° C. incubator with 5% CO2.
The cells were fixed with 4% paraformaldehyde, and then permeabilization was performed with 0.5% Triton X-100. After the plate was washed with DPBS, a hPIV specific antibody (1:2000 dilution) was added and incubated at 37° C. for 1.5 h. Then, a secondary antibody (1:500 dilution) was added and incubated at 37° C. for 1 hour. The secondary antibody was discarded, a TrueBlue solution was added, dyeing was performed for approximately 10 minutes; and the plate was washed with running water and then air-dried, and the number of spots in each well was counted by using a microplate imaging counter.
Raw data was used for calculating the antiviral activity of the samples, and a calculation formula was shown as follows.
% inhibition rate=100−(sample value-cell control average value)/(virus control average value-cell control average value)×100
Non-linear fitting analysis was performed on the inhibition rate of the sample by using GraphPad Prism (version 10), so as to calculate an EC50 value for the sample. A fitting formula was log (inhibitor) vs. response-Variable slope (four parameters).

SMILES | CC50 at 1 day [1] [µM] | pEC50 (hPIV3 C243 virus strain)
CC[C@H](C)[C@H](NC(=O)[C@H](CCCCN)NC(=O)[C@H](CCCCN)NC(=O)[C@H](CC(C)C)NC(=O)[C@H](CO)NC(=O)[C@H](CCC(=O)O)NC(=O)[C@H](CCC(=O)O)NC(=O)[C@@H](NC(=O)[C@H](CCCCN)NC(=O)[C@H](CCCCN)NC(=O)[C@H](CC(N)=O)NC(=O)[C@@H](NC(=O)[C@H](CCC(=O)O)NC(=O)[C@H](CCC(=O)O)NC(=O)[C@@H](NC(=O)[C@H](CCCCN)NC(=O)[C@H](CCCCN)NC(=O)[C@H](CCCCN)NC(=O)[C@H](CC(=O)O)NC(=O)[C@H](Cc1ccccc1)NC(=O)[C@H](CCC(=O)O)NC(=O)[C@H](CC(=O)O)NC(C)=O)[C@@H](C)CC)C(C)C)[C@@H](C)CC)C(=O)N[C@@H](CCC(=O)O)C(=O)N[C@@H](CCC(=O)O)C(=O)N[C@@H](CO)C(=O)N[C@@H](CC(=O)O)C(=O)N[C@@H](CCCCN)C(=O)N[C@@H](CCCCN)C(=O)N[C@@H](CC(C)C)C(=O)N[C@@H](CCC(=O)O)C(=O)N[C@@H](CCC(=O)O)C(=O)N[C@H](C(=O)NCC(=O)N[C@@H](CO)C(=O)NCC(=O)N[C@@H](CO)C(=O)NCC(=O)N[C@@H](CCCCNC(=O)CCC(=O)O[C@H]1CC[C@@]2(C)C(=CC[C@H]3[C@@H]4CC[C@H]([C@H](C)CCCC(C)C)[C@@]4(C)CC[C@@H]32)C1)C(N)=O)C(C)C [Compound 15] (Ac-DEFDKKKIEEVNKKIEESLKKIEESDKKLEEVGSGSGK(Succinyl(4-O-cholesteryl))-NH2) | 8.9 | 7.68
CC[C@H](C)[C@H](NC(=O)[C@H](CCCCN)NC(=O)[C@H](CCCCN)NC(=O)[C@H](CC(C)C)NC(=O)[C@H](CO)NC(=O)[C@H](CCC(=O)O)NC(=O)[C@H](CCC(=O)O)NC(=O)[C@@H](NC(=O)[C@H](CCCCN)NC(=O)[C@H](CCCCN)NC(=O)[C@H](CC(N)=O)NC(=O)[C@@H](NC(=O)[C@H](CCC(=O)O)NC(=O)[C@H](CCC(=O)O)NC(=O)[C@@H](NC(=O)[C@H](CCCCN)NC(=O)[C@H](CCCCN)NC(=O)[C@H](CC(=O)O)NC(=O)[C@H](Cc1ccccc1)NC(=O)[C@H](CCC(=O)O)NC(=O)[C@H](CC(=O)O)NC(=O)[C@H](CO)NC(C)=O)[C@@H](C)CC)C(C)C)[C@@H](C)CC)C(=O)N[C@@H](CCC(=O)O)C(=O)N[C@@H](CCC(=O)O)C(=O)N[C@@H](CO)C(=O)N[C@@H](CC(=O)O)C(=O)N[C@@H](CCCCN)C(=O)N[C@@H](CCCCN)C(=O)N[C@@H](CC(C)C)C(=O)NCC(=O)N[C@@H](CO)C(=O)NCC(=O)N[C@@H](CO)C(=O)NCC(=O)N[C@@H](CCCCNC(=O)CCC(=O)O[C@H]1CC[C@@]2(C)C(=CC[C@H]3[C@@H]4CC[C@H]([C@H](C)CCCC(C)C)[C@@]4(C)CC[C@@H]32)C1)C(N)=O [Compound 20] (Ac-SDEFDKKIEEVNKKIEESLKKIEESDKKLGSGSGK(Succinyl(4-O-cholesteryl))-NH2) | 29 | 7.23
CC[C@H](C)[C@H](NC(=O)[C@H](CCCCN)NC(=O)[C@H](CCCCN)NC(=O)[C@H](CC(C)C)NC(=O)[C@H](CO)NC(=O)[C@H](CCC(=O)O)NC(=O)[C@H](CCC(=O)O)NC(=O)[C@@H](NC(=O)[C@H](CCCCN)NC(=O)[C@H](CCCCN)NC(=O)[C@H](CC(N)=O)NC(=O)[C@@H](NC(=O)[C@H](CCC(=O)O)NC(=O)[C@H](CCC(=O)O)NC(=O)[C@@H](NC(=O)[C@H](CCCCN)NC(=O)[C@H](CCCCN)NC(=O)[C@H](CC(=O)O)NC(=O)[C@H](Cc1ccccc1)NC(=O)[C@H](CCC(=O)O)NC(=O)[C@H](CC(=O)O)NC(=O)[C@H](Cc1c[nH]c2ccccc12)NC(C)=O)[C@@H](C)CC)C(C)C)[C@@H](C)CC)C(=O)N[C@@H](CCC(=O)O)C(=O)N[C@@H](CCC(=O)O)C(=O)N[C@@H](CO)C(=O)N[C@@H](CC(=O)O)C(=O)N[C@@H](CCCCN)C(=O)N[C@@H](CCCCN)C(=O)N[C@@H](CC(C)C)C(=O)N[C@@H](CCC(=O)O)C(=O)N[C@@H](C)C(=O)N[C@@H](C)C(=O)N[C@@H](C)C(=O)N[C@@H](CCCCN)C(=O)N[C@@H](CCCCNC(=O)CCC(=O)O[C@H]1CC[C@@]2(C)C(=CC[C@H]3[C@@H]4CC[C@H]([C@H](C)CCCC(C)C)[C@@]4(C)CC[C@@H]32)C1)C(N)=O [Compound 13] (Ac-WDEFDKKIEEVNKKIEESLKKIEESDKKLEAAAKK(Succinyl(4-O-cholesteryl))-NH2) | 30.7 | 7.45
